Consider 22 compounds from patent publication US11053218B2, “3-(1-oxoisoindolin-2-yl)piperidine-2,6-dione derivatives and uses thereof” (Novartis AG, priority 2017, dated 2021).

Where two headings read alike, the source gives them in different places. Some results are limits rather than exact numbers.

In one experiment the target is IKZF2 (Homo sapiens, UniProt Q96SW2+Q9UKS7). In words: Prolabel quantification of IKZF2 protein levels in 293GT cells. The format is cell-based. As for the experimental part:
(§1) The Prolabel system from DiscoverX was used to develop high-throughput and quantitative assays to measure changes in IKZF1, IKZF2 and GSPT1 protein levels in response to compounds. The prolabel tag was derived from the alpha fragment of beta galactosidase and has the following protein sequence: mssnslavvlqrrdwenpgvtqlnrlaahppfaswrnseeartdrpsqqlrslnge. The complementary fragment of beta-galactosidase (from DiscoverX), is added to the prolabel tag to form an active beta galactosidase enzyme whose activity can be precisely measured. In this way, the levels of a fusion protein with the prolabel tag can be quantified in cell lysates.
(§2) Lentiviral vectors, based on the Invitrogen pLenti6.2/V5 DEST backbone, were constructed that placed the prolabel tag upstream of IKZF1, IKZF2 or GSPT1 and expressed the fusion protein from a CMV promoter.
(§3) To ensure moderate and consistent expression of the prolabel fusion proteins across all cells in the population, stable cell lines were constructed from cells expressing a single copy of the construct. Lentivirus packaged with the constructs was made using the Virapower kit from Invitrogen.
(§4) The levels of prolabel tagged fusion proteins in compound treated cell lines were measured as follows:
(§5) Day 1, Cells were diluted to 1.0×10^6 cells/ml in normal growth medium. 17.5 μL of cells were plated in each well of a solid white 384 well plate. Plates were incubated overnight in a 37° C. tissue culture incubator.
(§6) Day 2, Serial dilutions of compounds were made in 384 well plates from 10 mM stocks. 15 μL of DMSO was added to each well of a 384 well plate. In the first column 15 μL of stock compound was added. The solution was mixed and 15 μL was transferred to the next column. This was repeated until 20 two-fold dilutions were prepared. 2.5 μL of diluted compounds were transferred into 60 μL of cell culture medium in another 384 well plate, and mixed well. 2.5 μL of this mixture was added to the plated cells. The final DMSO concentration was 0.5% and the highest concentration of compound was 50 μM. Plates were incubated overnight (e.g., about 14 h, 18 h, or 24 h) in a 37° C. tissue culture incubator.
(§7) Day 3, Plates were removed from the incubator and allowed to equilibrate at rt for 30 minutes. Prolabel substrate (DiscoverX PathHunter Prolabel Detection Kit, User manual: 93-0180) was added as described by the manufacturers protocols. Plates were incubated at rt for three hours and luminescence was read using an Envision reader (Perkin Elmer) Data was analyzed and visualized using the Spotfire software package.

The next experiment addresses IKZF1 (Homo sapiens, UniProt Q13422+Q96SW2). Put plainly: Prolabel quantification of IKZF1 protein levels in 293GT cells. The format is cell-based. The note with it: Prolabel assay, read-out: IKZF1 EC50. As for the experimental part: as §1, §2, §3, §4, §5, §6, §7
Where [1] appears, read: 24 h, 10 μM, 24 h, 293GT cells; read-out: IKZF2 % protein reduction at 10 μM, 24 h.
Where [2] appears, read: Prolabel assay, 293GT cells; read-out: IKZF2 EC50.

Sequence of IKZF2 (Q9UKS7 whole entry, the tested form may be a part): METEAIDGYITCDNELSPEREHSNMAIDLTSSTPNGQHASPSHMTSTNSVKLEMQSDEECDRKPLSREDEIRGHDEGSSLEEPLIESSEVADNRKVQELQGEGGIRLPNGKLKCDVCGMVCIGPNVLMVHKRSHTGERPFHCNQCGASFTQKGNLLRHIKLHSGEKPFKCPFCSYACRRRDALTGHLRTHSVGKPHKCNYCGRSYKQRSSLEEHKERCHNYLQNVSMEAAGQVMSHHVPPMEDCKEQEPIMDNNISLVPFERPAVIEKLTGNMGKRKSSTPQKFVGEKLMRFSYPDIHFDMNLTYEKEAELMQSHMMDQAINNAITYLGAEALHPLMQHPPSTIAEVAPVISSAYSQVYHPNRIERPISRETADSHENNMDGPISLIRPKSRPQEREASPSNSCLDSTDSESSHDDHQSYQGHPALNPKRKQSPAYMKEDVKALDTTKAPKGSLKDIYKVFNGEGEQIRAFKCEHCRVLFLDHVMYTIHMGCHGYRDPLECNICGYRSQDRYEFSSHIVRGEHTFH
Sequence of IKZF2 (Q96SW2 whole entry, the tested form may be a part): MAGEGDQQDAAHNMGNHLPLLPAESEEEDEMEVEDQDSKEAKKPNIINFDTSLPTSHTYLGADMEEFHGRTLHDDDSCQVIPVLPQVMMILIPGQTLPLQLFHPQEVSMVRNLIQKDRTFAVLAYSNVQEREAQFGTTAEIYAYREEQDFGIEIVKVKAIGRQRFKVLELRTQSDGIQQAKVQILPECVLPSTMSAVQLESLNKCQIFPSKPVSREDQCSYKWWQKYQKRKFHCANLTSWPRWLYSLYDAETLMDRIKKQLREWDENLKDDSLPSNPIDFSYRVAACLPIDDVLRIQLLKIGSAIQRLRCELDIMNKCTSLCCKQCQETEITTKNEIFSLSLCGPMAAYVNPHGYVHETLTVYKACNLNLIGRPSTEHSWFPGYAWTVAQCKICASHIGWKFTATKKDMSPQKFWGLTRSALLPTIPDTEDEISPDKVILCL
Sequence of IKZF2 (Q16531 whole entry partner, the tested form may be a part): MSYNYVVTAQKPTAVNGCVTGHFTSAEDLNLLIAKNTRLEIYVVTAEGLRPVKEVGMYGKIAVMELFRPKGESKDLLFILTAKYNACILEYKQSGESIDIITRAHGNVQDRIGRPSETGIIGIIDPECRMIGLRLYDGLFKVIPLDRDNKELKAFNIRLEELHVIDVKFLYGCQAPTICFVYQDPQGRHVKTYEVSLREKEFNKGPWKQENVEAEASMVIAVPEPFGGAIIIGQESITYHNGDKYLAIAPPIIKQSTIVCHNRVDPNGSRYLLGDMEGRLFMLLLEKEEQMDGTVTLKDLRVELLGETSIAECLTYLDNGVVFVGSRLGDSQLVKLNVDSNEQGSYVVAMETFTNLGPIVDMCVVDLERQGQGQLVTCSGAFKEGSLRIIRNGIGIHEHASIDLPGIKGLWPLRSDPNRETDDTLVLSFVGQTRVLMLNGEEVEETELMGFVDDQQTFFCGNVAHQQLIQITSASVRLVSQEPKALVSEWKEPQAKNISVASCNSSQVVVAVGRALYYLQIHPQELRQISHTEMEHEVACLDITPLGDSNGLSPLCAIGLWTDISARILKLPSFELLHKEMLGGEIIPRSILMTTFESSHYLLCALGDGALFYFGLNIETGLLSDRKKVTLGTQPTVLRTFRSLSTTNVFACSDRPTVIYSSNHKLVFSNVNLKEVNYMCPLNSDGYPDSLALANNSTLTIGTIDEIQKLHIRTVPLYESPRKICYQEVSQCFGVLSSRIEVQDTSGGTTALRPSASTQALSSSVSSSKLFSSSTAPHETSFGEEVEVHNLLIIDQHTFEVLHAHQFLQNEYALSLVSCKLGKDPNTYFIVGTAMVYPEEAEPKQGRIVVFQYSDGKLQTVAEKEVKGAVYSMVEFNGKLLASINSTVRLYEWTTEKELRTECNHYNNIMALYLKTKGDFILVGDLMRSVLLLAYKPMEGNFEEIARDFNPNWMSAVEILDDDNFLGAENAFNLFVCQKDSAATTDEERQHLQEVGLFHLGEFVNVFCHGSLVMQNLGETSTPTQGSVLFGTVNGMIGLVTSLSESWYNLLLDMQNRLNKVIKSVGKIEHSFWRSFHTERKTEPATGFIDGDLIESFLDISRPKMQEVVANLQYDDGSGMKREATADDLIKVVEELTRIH
Sequence of IKZF1 (Q13422 whole entry): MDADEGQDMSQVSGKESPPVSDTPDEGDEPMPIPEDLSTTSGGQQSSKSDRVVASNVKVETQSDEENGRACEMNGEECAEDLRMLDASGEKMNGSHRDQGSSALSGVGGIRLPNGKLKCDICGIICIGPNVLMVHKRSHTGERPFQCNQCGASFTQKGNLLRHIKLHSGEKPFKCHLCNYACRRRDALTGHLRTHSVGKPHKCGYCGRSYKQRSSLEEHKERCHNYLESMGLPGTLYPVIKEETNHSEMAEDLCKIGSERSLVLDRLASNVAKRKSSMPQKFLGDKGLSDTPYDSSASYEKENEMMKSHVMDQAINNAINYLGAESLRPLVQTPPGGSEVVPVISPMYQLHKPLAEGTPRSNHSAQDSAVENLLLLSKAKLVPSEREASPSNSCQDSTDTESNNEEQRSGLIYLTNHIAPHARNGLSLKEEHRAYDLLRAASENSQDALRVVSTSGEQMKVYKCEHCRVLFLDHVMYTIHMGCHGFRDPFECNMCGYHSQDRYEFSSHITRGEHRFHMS
Sequence of IKZF1 (Q96SW2 whole entry): as the sequence (Q96SW2 whole entry, the tested form may be a part) above
Sequence of IKZF1 (Q16531 whole entry partner): as the sequence (Q16531 whole entry partner, the tested form may be a part) above

Turning to `N#Cc1cccc(CN2CCC(c3ccc4c(c3)CN(C3CCC(=O)NC3=O)C4=O)CC2)n1` (stereo not shown) [Compound I-217, 6-((4-(2-(2,6-dioxopiperidin-3-yl)-1-oxoisoindolin-5-yl)piperidin-1-yl)methyl)picolinonitrile], the inhibition at 10 µM on IKZF2 (setting [1]) was determined as 40%. For the same compound, the DC50 is 8 nM at IKZF2 (setting [2]) and greater than 30000 nM on IKZF1.
For `O=C1CCC(N2Cc3cc(C4CCN(Cc5cc(C(F)(F)F)cc(C(F)(F)F)c5)CC4)ccc3C2=O)C(=O)N1` (stereo not shown) [Compound I-215, 3-(5-(1-(3,5-bis(trifluoromethyl)benzyl)piperidin-4-yl)-1-oxoisoindolin-2-yl)piperidine-2,6-dione] the same measures were 50%, 19 nM and greater than 30000 nM.
As to `O=C1CCC(N2Cc3cc(C4CCN(Cc5ccc6c(c5)CCCC6)CC4)ccc3C2=O)C(=O)N1` (stereo not shown) [Compound I-175, 3-(1-oxo-5-(1-((5,6,7,8-tetrahydronaphthalen-2-yl)methyl)piperidin-4-yl)isoindolin-2-yl)piperidine-2,6-dione], the inhibition at 10 µM at IKZF2 (setting [1]) was determined as 50%. In addition, the DC50 on IKZF2 (setting [2]) is 5 nM; at IKZF1, greater than 50000 nM.
Consider `O=C1CCC(N2Cc3cc(C4CCN(Cc5ccc6c(c5)OCCO6)CC4)ccc3C2=O)C(=O)N1` (stereo not shown) [Compound I-83, 3-(5-(1-((2,3-dihydrobenzo[b][1,4]dioxin-6-yl)methyl)piperidin-4-yl)-1-oxoisoindolin-2-yl)piperidine-2,6-dione], for which, on IKZF2 (setting [1]), the inhibition at 10 µM was 80%. For the same compound, the DC50 at IKZF2 (setting [2]) was 52 nM; at IKZF1 it was greater than 30000 nM.
For `O=C1CCC(N2Cc3cc(C4CCN(Cc5cccc6ncnn56)CC4)ccc3C2=O)C(=O)N1` (stereo not shown) [Compound I-127, 3-(5-(1-([1,2,4]triazolo[1,5-a]pyridin-5-ylmethyl)piperidin-4-yl)-1-oxoisoindolin-2-yl)piperidine-2,6-dione], in that order: 45%, 190 nM and greater than 30000 nM.
As to `Cn1ccc(CN2CCC(c3ccc4c(c3)CN(C3CCC(=O)NC3=O)C4=O)CC2)n1` (stereo not shown) [Compound I-117, 3-(5-(1-((1-methyl-1H-pyrazol-3-yl)methyl)piperidin-4-yl)-1-oxoisoindolin-2-yl)piperidine-2,6-dione], at IKZF2 (setting [1]), the inhibition at 10 µM came to 50%. In addition, the DC50 is 50 nM on IKZF2 (setting [2]) and greater than 30000 nM at IKZF1.
Turning to `N#CCOc1ccc(CN2CCC(c3ccc4c(c3)CN(C3CCC(=O)NC3=O)C4=O)CC2)cc1` (stereo not shown) [Compound I-218, 2-(4-((4-(2-(2,6-dioxopiperidin-3-yl)-1-oxoisoindolin-5-yl)piperidin-1-yl)methyl)phenoxy)acetonitrile], the inhibition at 10 µM at IKZF2 (setting [1]) was determined as 60%. Also, the DC50 at IKZF2 (setting [2]) is 4 nM; on IKZF1, greater than 30000 nM.
In the case of `O=C1CCC(N2Cc3cc(C4CCN(Cc5ccc(C(=O)O)cc5)CC4)ccc3C2=O)C(=O)N1` (stereo not shown) [Compound I-72, 4-((4-(2-(2,6-dioxopiperidin-3-yl)-1-oxoisoindolin-5-yl)piperidin-1-yl)methyl)benzoic acid], the inhibition at 10 µM on IKZF2 (setting [1]) stood at 55%. The DC50 was 4500 nM on IKZF2 (setting [2]) and greater than 30000 nM at IKZF1.
For `O=C1CCC(N2Cc3cc(C4CCN(Cc5ccccc5C(F)(F)F)CC4)ccc3C2=O)C(=O)N1` (stereo not shown) [Compound I-106, 3-(1-oxo-5-(1-(2-(trifluoromethyl)benzyl)piperidin-4-yl)isoindolin-2-yl)piperidine-2,6-dione], in that order: 50%, 14 nM and greater than 30000 nM.
Turning to `O=C1CCC(N2Cc3cc(C4CCN(Cc5ccccn5)CC4)ccc3C2=O)C(=O)N1` (stereo not shown) [Compound I-58, 3-(1-oxo-5-(1-(pyridin-2-ylmethyl)piperidin-4-yl)isoindolin-2-yl)piperidine-2,6-dione], the inhibition at 10 µM at IKZF2 (setting [1]) turned out to be 60%. Also, the DC50 on IKZF2 (setting [2]) was 53 nM; at IKZF1 it was greater than 30000 nM.
Consider `O=C1CCC(N2Cc3cc(C4CCN(Cc5cc(-c6ccccn6)n[nH]5)CC4)ccc3C2=O)C(=O)N1` (stereo not shown) [Compound I-201, 3-(1-oxo-5-(1-((3-(pyridin-2-yl)-1H-pyrazol-5-yl)methyl)piperidin-4-yl)isoindolin-2-yl)piperidine-2,6-dione], for which the inhibition at 10 µM on IKZF2 (setting [1]) was found to be 75%. For the same compound, the DC50 is 33 nM on IKZF2 (setting [2]) and greater than 30000 nM on IKZF1.
On to `O=C1CCC(N2Cc3cc(C4CCN(Cc5nccc6ccccc56)CC4)ccc3C2=O)C(=O)N1` (stereo not shown) [Compound I-226, 3-(5-(1-(isoquinolin-1-ylmethyl)piperidin-4-yl)-1-oxoisoindolin-2-yl)piperidine-2,6-dione], for which, on IKZF2 (setting [1]), the inhibition at 10 µM is 50%. In addition, the DC50 at IKZF2 (setting [2]) is 10 nM; at IKZF1 it was greater than 25000 nM.
For the compound `CC(C)Oc1cccc(CN2CCC(c3ccc4c(c3)CN(C3CCC(=O)NC3=O)C4=O)CC2)n1` (stereo not shown) [Compound I-301, 3-(5-(1-((6-isopropoxypyridin-2-yl)methyl)piperidin-4-yl)-1-oxoisoindolin-2-yl)piperidine-2,6-dione], the inhibition at 10 µM at IKZF2 (setting [1]) worked out at 60%. Moreover, the DC50 on IKZF2 (setting [2]) came out at 140 nM; at IKZF1 it was 320 nM.
Take `CC(C)Oc1ccc(CN2CCC(c3ccc4c(c3)CN(C3CCC(=O)NC3=O)C4=O)CC2)cn1` (stereo not shown) [Compound I-285, 3-(5-(1-((6-isopropoxypyridin-3-yl)methyl)piperidin-4-yl)-1-oxoisoindolin-2-yl)piperidine-2,6-dione]: the inhibition at 10 µM at IKZF2 (setting [1]) was 70%. The DC50 at IKZF2 (setting [2]) is 12 nM; on IKZF1, greater than 30000 nM.
For `O=C1CCC(N2Cc3cc(C4CCN(Cc5ccc6c(c5)OC(F)(F)O6)CC4)ccc3C2=O)C(=O)N1` (stereo not shown) [Compound I-87, 3-(5-(1-((2,2-difluorobenzo[b][1,3]dioxol-5-yl)methyl)piperidin-4-yl)-1-oxoisoindolin-2-yl)piperidine-2,6-dione], at IKZF2 (setting [1]), the inhibition at 10 µM was 80%. Moreover, the DC50 was 13 nM at IKZF2 (setting [2]) and greater than 30000 nM on IKZF1.
As for `O=C1CCC(N2Cc3cc(C4CCN(Cc5cccc6cccnc56)CC4)ccc3C2=O)C(=O)N1` (stereo not shown) [Compound I-114, 3-(1-oxo-5-(1-(quinolin-8-ylmethyl)piperidin-4-yl)isoindolin-2-yl)piperidine-2,6-dione], on IKZF2 (setting [1]), the inhibition at 10 µM amounted to 40%. The figures for the DC50 at IKZF2 (setting [2]) and at IKZF1 were 29 nM and greater than 50000 nM, respectively.
With `Cc1cccc(CN2CCC(c3ccc4c(c3)CN(C3CCC(=O)NC3=O)C4=O)CC2)c1` (stereo not shown) [Compound I-173, 3-(5-(1-(3-methylbenzyl)piperidin-4-yl)-1-oxoisoindolin-2-yl)piperidine-2,6-dione], at IKZF2 (10 μM, 24 h, 293GT cells; read-out: IKZF2 % protein reduction at 10 μM, 24 h), the inhibition at 10 µM turned out to be 65%. The values for the DC50 at IKZF2 (setting [2]) and at IKZF1 were 74 nM and greater than 30000 nM, respectively.
As to `O=C1CCC(N2Cc3cc(C4CCN(Cc5c[nH]nc5-c5ccccc5)CC4)ccc3C2=O)C(=O)N1` (stereo not shown) [Compound I-148, 3-(1-oxo-5-(1-((3-phenyl-1H-pyrazol-4-yl)methyl)piperidin-4-yl)isoindolin-2-yl)piperidine-2,6-dione], the inhibition at 10 µM on IKZF2 (setting [1]) came to 70%. Besides, the DC50 at IKZF2 (setting [2]) was 39 nM; on IKZF1, greater than 30000 nM.
Take `O=C1CCC(N2Cc3cc(C4CCN(Cc5ccc6[nH]ncc6c5)CC4)ccc3C2=O)C(=O)N1` (stereo not shown) [Compound I-219, 3-(5-(1-((1H-indazol-5-yl)methyl)piperidin-4-yl)-1-oxoisoindolin-2-yl)piperidine-2,6-dione]: on IKZF2 (setting [1]), the inhibition at 10 µM was determined as 80%. In addition, at IKZF2 (Prolabel assay in HEK293GT cells, bar graph), the “IKZF2 protein levels as compared to the control (DMSO)” value is recorded as “decreased”. In addition, the DC50 at IKZF2 (setting [2]) was 11 nM; on IKZF1, greater than 25000 nM.
For `CC(c1ccccc1)N1CCC(c2ccc3c(c2)CN(C2CCC(=O)NC2=O)C3=O)CC1` (single isomer, unassigned) [Compound I-230], at IKZF2 (setting [1]), the inhibition at 10 µM was 65%. Besides, the DC50 at IKZF2 (setting [2]) is 9 nM; on IKZF1 it was greater than 30000 nM.
Regarding `COC(=O)c1coc(CN2CCC(c3ccc4c(c3)CN(C3CCC(=O)NC3=O)C4=O)CC2)n1` (stereo not shown) [Compound I-254, methyl 2-((4-(2-(2,6-dioxopiperidin-3-yl)-1-oxoisoindolin-5-yl)piperidin-1-yl)methyl)oxazole-4-carboxylate], the inhibition at 10 µM on IKZF2 (setting [1]) amounted to 40%. The DC50 at IKZF2 (setting [2]) was 680 nM; on IKZF1 it was greater than 30000 nM.
For `O=C1CCC(N2Cc3cc(C4CCN(Cc5cc(F)cc(F)c5)CC4)ccc3C2=O)C(=O)N1` (stereo not shown) [Compound I-26, 3-(5-(1-(3,5-difluorobenzyl)piperidin-4-yl)-1-oxoisoindolin-2-yl)piperidine-2,6-dione] the same measures were 65%, 7 nM and greater than 30000 nM.
